Experimental data from patent US20240327430A1 (Breakpoint Therapeutics GmbH, priority 2023, published 2024).

The compounds below were run against truncated Polθ protein (Polθ-Hel containing the helicase domain (67-894)) (Homo sapiens (Human), UniProt O75417) (assay: Polθ ATPase assay (Biological Assay 1, ADP-Glo luminescence)). Conditions: Polθ-Hel 0.5 nM, DNA substrate 500 nM, ATP 60 μM, 23° C.; read-out: Pole ATPase assay IC50.
Assay type: biochemical
Method: The Polθ ATPase assay was used to evaluate inhibitors of Polθ ATPase activity, in vitro. Experiments were performed using a truncated Polθ protein (Polθ-Hel containing the helicase domain (67-894), ATP and a DNA single strand Oligo (5′-CTGTCCTGCATGATG-3′) in the Polθ assay buffer (20 mM Tis-HCl (pH 8.8), MgCl2 5 mM, tween20 0.01%, NP40 0.01%, BSA 0.01%, DTT 1 mM). 2 μL of assay buffer containing Pole-Hel protein (0.5 nM) and DNA substrate (500 nM) was transferred into assay ready plates, containing 0.04 μL of compounds diluted in DMSO. After a 30 minutes incubation at 23° C. in the dark, the reaction was triggered by adding 2 μL of ATP (60 μM), in assay buffer. After 60 minutes at 23° C., 4 μl of ADP-Glo™ Reagent (Glo 1) was added followed by 40 minutes of incubation, then 8 μl of ADP-Glom kinase Detection Reagent (Glo 2) followed by 60 minutes of incubation at 23° C. Luminescence was then measured using Tecan F200 infinite plate reader. Raw data were analysed using GeneData to generate IC50 values.
The Polθ ATPase assay described in Biological Assay 1 above was used to evaluate inhibitors of Polθ ATPase activity for the compounds described in the Experimental Part B above, in vitro.

Chain of truncated Polθ protein (Polθ-Hel containing the helicase domain (67-894)) (O75417 67-894): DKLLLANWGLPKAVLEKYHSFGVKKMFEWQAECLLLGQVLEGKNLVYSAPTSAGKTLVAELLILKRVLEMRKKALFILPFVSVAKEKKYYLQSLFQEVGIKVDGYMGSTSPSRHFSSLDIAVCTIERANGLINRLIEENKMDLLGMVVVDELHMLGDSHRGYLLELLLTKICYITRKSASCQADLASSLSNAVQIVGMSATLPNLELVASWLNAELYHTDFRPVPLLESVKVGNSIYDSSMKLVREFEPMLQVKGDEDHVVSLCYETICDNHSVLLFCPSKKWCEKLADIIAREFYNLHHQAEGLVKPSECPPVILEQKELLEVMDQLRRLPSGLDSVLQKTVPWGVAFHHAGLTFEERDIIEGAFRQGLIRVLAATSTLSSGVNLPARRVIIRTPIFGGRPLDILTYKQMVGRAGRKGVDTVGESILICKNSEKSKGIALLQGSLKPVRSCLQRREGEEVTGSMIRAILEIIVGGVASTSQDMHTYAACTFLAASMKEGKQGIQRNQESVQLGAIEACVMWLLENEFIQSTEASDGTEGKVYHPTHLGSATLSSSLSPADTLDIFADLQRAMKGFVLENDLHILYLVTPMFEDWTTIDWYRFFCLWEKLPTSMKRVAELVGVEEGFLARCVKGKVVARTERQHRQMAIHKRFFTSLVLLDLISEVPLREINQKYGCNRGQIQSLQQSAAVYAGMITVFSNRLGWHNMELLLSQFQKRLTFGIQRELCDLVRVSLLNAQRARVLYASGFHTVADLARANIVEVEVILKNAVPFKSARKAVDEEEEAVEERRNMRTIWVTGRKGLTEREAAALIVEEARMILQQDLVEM

IC50 [nM]	SMILES
100 to 1000	COc1cnc(Cl)cc1-c1cc(C)ncc1C(=O)Nc1nc2ccc(N)cc2s1 [Example 36A, N-(6-amino-1,3-benzothiazol-2-yl)-4-(2-chloro-5-methoxy-4-pyridyl)-6-methyl-pyridine-3-carboxamide]
< 100	COc1cnc(Cl)cc1-c1cc(C)ncc1C(=O)Nc1nc2ccc(N3CCCCC3=O)cc2s1 [Example 36B, 2′-chloro-5′-methoxy-6-methyl-N-[6-(2-oxopiperidin-1-yl)-1,3-benzothiazol-2-yl]-[4,4′-bipyridine]-3-carboxamide]
< 100	COc1cnc(Cl)cc1-c1cc(C)ncc1C(=O)Nc1nc2ccc(C3=CCCOC3)nc2s1 [Example 37, 2′-chloro-N-[5-(5,6-dihydro-2H-pyran-3-yl)-[1,3]thiazolo[5,4-b]pyridin-2-yl]-5′-methoxy-6-methyl-[4,4′-bipyridine]-3-carboxamide]
< 100	COc1cnc(Cl)cc1-c1cc(C)ncc1C(=O)Nc1nc2ccc(-c3ccc(Cl)cn3)cc2s1 [Example 38, 2′-chloro-N-[6-(5-chloropyridin-2-yl)-1,3-benzothiazol-2-yl]-5′-methoxy-6-methyl-[4,4′-bipyridine]-3-carboxamide]
100 to 1000	COc1cnc(Cl)cc1-c1cc(C)ncc1C(=O)Nc1nc2ccc(C3(O)CCOC3)cc2s1 (stereo not drawn) [Example 40, 2′-chloro-N-[6-(3-hydroxyoxolan-3-yl)-1,3-benzothiazol-2-yl]-5′-methoxy-6-methyl-[4,4′-bipyridine]-3-carboxamide]
< 100	COc1cnc(Cl)cc1-c1cc(C)ncc1C(=O)Nc1nc2ccc(NS(C)(=O)=O)cc2s1 [Example 41, 2′-chloro-N-(6-methanesulfonamido-1,3-benzothiazol-2-yl)-5′-methoxy-6-methyl-[4,4′-bipyridine]-3-carboxamide]
< 100	COc1cnc(Cl)cc1-c1cc(C)ncc1C(=O)Nc1nc2cncnc2s1 [Example 42, 2′-chloro-5′-methoxy-6-methyl-N-{[1,3]thiazolo[5,4-d]pyrimidin-2-yl}-[4,4′-bipyridine]-3-carboxamide]
< 100	COc1cnc(Cl)cc1-c1cc(C)ncc1C(=O)Nc1nc2ccc(SC)cc2s1 [Example 43, 2′-chloro-5′-methoxy-6-methyl-N-[6-(methylsulfanyl)-1,3-benzothiazol-2-yl]-[4,4′-bipyridine]-3-carboxamide]
< 100	COc1cnc(Cl)cc1-c1cc(C)ncc1C(=O)Nc1nc2ccncc2s1 [Example 44, 2′-chloro-5′-methoxy-6-methyl-N-{[1,3]thiazolo[5,4-c]pyridin-2-yl}-[4,4′-bipyridine]-3-carboxamide]
< 100	COc1cnc(Cl)cc1-c1cc(C)ncc1C(=O)Nc1nc2cnc(N3CCN(C(C)=O)CC3)nc2s1 [Example 45, N-[5-(4-acetylpiperazin-1-yl)-[1,3]thiazolo[5,4-d]pyrimidin-2-yl]-2′-chloro-5′-methoxy-6-methyl-[4,4′-bipyridine]-3-carboxamide]
< 100	COc1cnc(Cl)cc1-c1cc(C)ncc1C(=O)Nc1nc2cnc(NCCO)nc2s1 [Example 46, 2′-chloro-N-{5-[(2-hydroxyethyl)amino]-[1,3]thiazolo[5,4-d]pyrimidin-2-yl}-5′-methoxy-6-methyl-[4,4′-bipyridine]-3-carboxamide]
< 100	COc1cnc(Cl)cc1-c1cc(C)ncc1C(=O)Nc1nc2cnc(N3CC(OC)C3)nc2s1 [Example 47, 2′-chloro-5′-methoxy-N-[5-(3-methoxyazetidin-1-yl)-[1,3]thiazolo[5,4-d]pyrimidin-2-yl]-6-methyl-[4,4′-bipyridine]-3-carboxamide]
< 100	COc1cnc(Cl)cc1-c1cc(C)ncc1C(=O)Nc1nc2cnc(NC3CCC(O)CC3)nc2s1 (stereo not drawn) [Example 48, 2′-chloro-N-{5-[(4-hydroxycyclohexyl)amino]-[1,3]thiazolo[5,4-d]pyrimidin-2-yl}-5′-methoxy-6-methyl-[4,4′-bipyridine]-3-carboxamide]
< 100	COc1cnc(Cl)cc1-c1cc(C)ncc1C(=O)Nc1nc2cnc(N3CCOC[C@H]3C)nc2s1 [Example 50, 2′-chloro-5′-methoxy-6-methyl-N-{5-[(3R)-3-methylmorpholin-4-yl]-[1,3]thiazolo[5,4-d]pyrimidin-2-yl}-[4,4′-bipyridine]-3-carboxamide]
< 100	COc1cnc(Cl)cc1-c1cc(C)ncc1C(=O)Nc1nc2cnc(N3CCOC[C@@H]3C)nc2s1 [Example 51, 2′-chloro-5′-methoxy-6-methyl-N-{5-[(3S)-3-methylmorpholin-4-yl]-[1,3]thiazolo[5,4-d]pyrimidin-2-yl}-[4,4′-bipyridine]-3-carboxamide]
< 100	COc1cnc(Cl)cc1-c1cc(C)ncc1C(=O)Nc1nc2cnc(NC(C)C)nc2s1 [Example 52, 2′-chloro-5′-methoxy-6-methyl-N-{5-[(propan-2-yl)amino]-[1,3]thiazolo[5,4-d]pyrimidin-2-yl}-[4,4′-bipyridine]-3-carboxamide]
< 100	COc1cnc(Cl)cc1-c1cc(C)ncc1C(=O)Nc1nc2cnc(N3CCC4(CC3)COC4)nc2s1 [Example 53, 2′-chloro-5′-methoxy-6-methyl-N-(5-{2-oxa-7-azaspiro[3.5]nonan-7-yl}-[1,3]thiazolo[5,4-d]pyrimidin-2-yl)-[4,4′-bipyridine]-3-carboxamide]
< 100	COc1cnc(Cl)cc1-c1cc(C)ncc1C(=O)Nc1nc2cnc(N3CCNCC3)nc2s1 [Example 55, 2′-chloro-5′-methoxy-6-methyl-N-[5-(piperazin-1-yl)-[1,3]thiazolo[5,4-d]pyrimidin-2-yl]-[4,4′-bipyridine]-3-carboxamide]
< 100	COc1cnc(Cl)cc1-c1cc(C)ncc1C(=O)Nc1nc2ccc(N3CCOCC3=O)cc2s1 [Example 57, 2′-chloro-5′-methoxy-6-methyl-N-[6-(3-oxomorpholin-4-yl)-1,3-benzothiazol-2-yl]-[4,4′-bipyridine]-3-carboxamide]
< 100	COc1cnc(Cl)cc1-c1cc(C)ncc1C(=O)Nc1nc2ccc(N3CCN(C)C3=O)cc2s1 [Example 58, 2′-chloro-5′-methoxy-6-methyl-N-[6-(3-methyl-2-oxoimidazolidin-1-yl)-1,3-benzothiazol-2-yl]-[4,4′-bipyridine]-3-carboxamide]
< 100	COc1cnc(Cl)cc1-c1cc(C)ncc1C(=O)Nc1nc2ccc(N3CCOC3=O)cc2s1 [Example 59, 2′-chloro-5′-methoxy-6-methyl-N-[6-(2-oxo-1,3-oxazolidin-3-yl)-1,3-benzothiazol-2-yl]-[4,4′-bipyridine]-3-carboxamide]
< 100	COc1cnc(Cl)cc1-c1cc(C)ncc1C(=O)Nc1nc2ccc(N3CCNC3=O)cc2s1 [Example 60, 2′-chloro-5′-methoxy-6-methyl-N-[6-(2-oxoimidazolidin-1-yl)-1,3-benzothiazol-2-yl]-[4,4′-bipyridine]-3-carboxamide]
< 100	COc1cnc(Cl)cc1-c1cc(C)ncc1C(=O)Nc1nc2cnc(N3CCCCC3=O)cc2s1 [Example 61, 2′-chloro-5′-methoxy-6-methyl-N-[6-(2-oxopiperidin-1-yl)-[1,3]thiazolo[4,5-c]pyridin-2-yl]-[4,4′-bipyridine]-3-carboxamide]
< 100	COc1cnc(Cl)cc1-c1cc(C)ncc1C(=O)Nc1nc2cnccc2s1 [Example 62, 2′-chloro-5′-methoxy-6-methyl-N-{[1,3]thiazolo[4,5-c]pyridin-2-yl}-[4,4′-bipyridine]-3-carboxamide]
< 100	COc1cnc(Cl)cc1-c1cc(C)ncc1C(=O)Nc1nc2cc(Cl)ncc2s1 [Example 63, 2′-chloro-N-{6-chloro-[1,3]thiazolo[5,4-c]pyridin-2-yl}-5′-methoxy-6-methyl-[4,4′-bipyridine]-3-carboxamide]
< 100	COc1cnc(Cl)cc1-c1cc(C)ncc1C(=O)Nc1nc2cnc(Cl)cc2s1 [Example 64, 2′-chloro-N-{6-chloro-[1,3]thiazolo[4,5-c]pyridin-2-yl}-5′-methoxy-6-methyl-[4,4′-bipyridine]-3-carboxamide]

SMILES	IC50 [nM]
COc1ccccc1-c1cnccc1C(=O)Nc1nc2ccc(-c3ccc(Cl)cn3)cc2s1 [Example 39, N-[6-(5-chloropyridin-2-yl)-1,3-benzothiazol-2-yl]-3-(2-methoxyphenyl)pyridine-4-carboxamide]	100 to 1000
COc1cnc(Cl)cc1-c1cc(C)ncc1C(=O)Nc1nc2cnc(N3CC4CCC(C3)N4)nc2s1 [Example 54, 2′-chloro-N-(5-{3,8-diazabicyclo[3.2.1]octan-3-yl}-[1,3]thiazolo[5,4-d]pyrimidin-2-yl)-5′-methoxy-6-methyl-[4,4′-bipyridine]-3-carboxamide]	< 100
COc1cnc(Cl)cc1-c1cc(C)ncc1C(=O)Nc1nc2ccc(N3CCCC3=O)cc2s1 [Example 56, 2′-chloro-5′-methoxy-6-methyl-N-[6-(2-oxopyrrolidin-1-yl)-1,3-benzothiazol-2-yl]-[4,4′-bipyridine]-3-carboxamide]	< 100
COc1cnc(Cl)cc1-c1cc(C)ncc1C(=O)Nc1nc2cnc(N3CCOCC3)cc2s1 [Example 65, 2′-chloro-5′-methoxy-6-methyl-N-[6-(morpholin-4-yl)-[1,3]thiazolo[4,5-c]pyridin-2-yl]-[4,4′-bipyridine]-3-carboxamide]	< 100
